# Source: patent publication US11572373B2, “Maytansinoid-based drug delivery systems” (LADRX CORPORATION, priority 2017, dated 2023)
# Marks after values point to notes of the source that are not given here.
# Tests used:
# [1] = Stability and release kinetics of maytansinoid-HSA conjugates in buffer solution at pH 4.0 and pH 7.4; assay type: physicochemical; conditions: maytansinoid-HSA conjugate, PBS pH 7.4, 37° C.
# Method: For preparing HSA conjugates of albumin-binding maytansinoids, HSA (200 μM: 361.8 μL, 1078 μM free Cys34; 100 μM: 180.9 μL, 1078 μM free Cys34) was diluted with PBS buffer (4 mM sodium phosphate, 150 mM NaCl, pH 7.4) (200 μM: 678.2 μL; 100 μM: 859.1 μL) and DMSO (200 μM: 130.0 μL; 100 μM: 195.0 μL) and incubated in a heating block at 37° C. for 30 minutes. The albumin-binding maytansinoid was added as a 2 mM stock solution in DMSO (200 μM: 130.0 μL; 100 μM: 65.0 μL) to the preincubated HSA sample to produce a 200 μM or 100 μM solution of maytansinoid-prodrug and 300 μM or 150 μM of free Cys34. The mixture having a pH of 7.4 was allowed to react for 10 min at 37° C. and was then analyzed hourly for 24 hours by RP-HPLC (Phenomenex Aeris WP XB-C18, 3.6 μm, 250×4.6 mm).
# For studying the release kinetics at pH 4.0 the mixture was acidified with a mixture of 50 mM sodium acetate buffer pH 3.0 (200 μM: 119.3 μL; 100 μM: 125.2 μL) and 1 M HCl (200 μM: 12.7 μL; 100 μM: 6.8 μL) to reach pH 4.0. The mixture was subsequently analyzed hourly for 24 hours by RP-HPLC (Phenomenex Aeris WP XB-C18, 3.6 μm, 250×4.6 mm).
# The following RP-HPLC conditions were used: Phenomenex Aeris WP XB-C18 3.6 μm, 250×4.6 mm; eluent A (100% 20 mM Tris buffer pH 8.0) and eluent B (90:10, MeCN: water) eluting with a gradient of eluent B (25% 0-0.5 min, 25-35% 0.5-2.5 min, 35-85% 2.5-16 min, 85-95% 16-17 min, 95% 17-20 min, 95-25% 20-25 min, 25% 25-30 min, flow rate 1.0 mL/min). Column oven temperature 37° C.; autosampler temperature 37° C.; 20 μL of injection volume.
# To quantify the percentage of free drug released, standard curves of the free maytansinoids were prepared at different concentrations (200 μM, 100 μM, 50 μM, 25 μM and 12.5 μM). The area under the curve (AUC) was determined at 250 nm.
# [2] = test system: human tumor xenograft models; test: Antitumor activity in human tumor xenograft mice models; assay type: in vivo; conditions: five human tumor xenograft models in nude mice, i.v. on day 1, 8, 15, and 22
# Description: This included starting tumor volumes in the range of approximately 80-110 mm^3 but also initial starting tumor volumes of up to approximately 400 mm^3. Furthermore, in most cases therapy with albumin-binding maytansinoids 30 and 31 induced long-term remissions and a decrease in Relative Tumor Volume (RTV). […] Experimental procedure and the results in the tumor-bearing mice models are described in detail in Examples 11-19 and FIGS. 3-16.
# Female immunodeficient NMRI nude mice, from Charles River, received unilateral tumor implants subcutaneously in the left flank while under isoflurane anesthesia with human cancer tumors until tumors were palpable and had reached a volume of 80-200 mm^3 (unless otherwise stated).
# Animals were kept in cages, the temperature inside the cages maintained at 25±1° C. with a relative humidity of 45-65% and an air change rate in the cage of 60-fold per hour. They were kept under a 14 h light: 10 h dark, artificial light cycle. The animals were fed with autoclaved Teklad Global 19% Protein Extruded Diet (T.2019S.12) from Envigo RMS SARL and had access to sterile filtered and acidified (pH 2.5) tap water, which was changed twice weekly. Feed and water were provided ad libitum. […] Animals were routinely monitored twice daily on working days and daily on Saturdays and Sundays. […] Relative body weights (RBW) of individual animals were calculated by dividing the individual absolute body weight on day X (BWx) by the individual body weight on the day of randomization multiplied by 100%. The tumor volume was determined by a two-dimensional measurement with calipers on the day of randomization (day 0) and then twice weekly. Tumor volumes were calculated according to the following equation: Tumor Vol [mm^3]=1 [mm]×w^2 [mm^2]×0.5, where “1” is the length and “w” is width of the tumor. The relative volume of an individual tumor on day X (RTVx) was calculated by dividing the absolute individual tumor volume [mm^3] of the respective tumor on day X (Tx) by the absolute individual tumor volume of the same tumor on the day of randomization multiplied by 100%. […]
# [3] = In vitro cytotoxicity in different cell lines using the CellTiter-Blue Cell Viability Assay; assay type: cell-based, human; conditions: Homo sapiens; geometric mean over the n cell lines tested, 96 h treatment, CellTiter-Blue; read-out: Geomean IC50
Compound,free maytansinoid after 24 h at pH 7.4 ([1]; measured at 200 μM),also measured
COc1cc2cc(c1Cl)N(C)C(=O)C[C@H](OC(=O)COc1ccc(/C(C)=N/NC(=O)c3ccc(NC(=O)CCCCCN4C(=O)C=CC4=O)cc3S(=O)(=O)O)cc1)[C@]1(C)O[C@H]1[C@H](C)[C@@H]1C[C@@](O)(NC(=O)O1)[C@H](OC)/C=C/C=C(\C)C2 [Compound 36],4.7%*,–
COc1cc2cc(c1Cl)N(C)C(=O)C[C@H](OC(=O)CSc1ccc(/C(C)=N/NC(=O)c3ccc(NC(=O)CCCCCN4C(=O)C=CC4=O)cc3S(=O)(=O)O)cc1C(F)(F)F)[C@]1(C)O[C@H]1[C@H](C)[C@@H]1C[C@@](O)(NC(=O)O1)[C@H](OC)/C=C/C=C(\C)C2 [Compound 38],4.9%*,–
"COc1cc2cc(c1Cl)N(C)C(=O)C[C@H](OC(=O)[C@H](C)N(C)C(C)=O)[C@]1(C)O[C@H]1[C@H](C)[C@@H]1C[C@@](O)(NC(=O)O1)[C@H](OC)/C=C/C=C(\C)C2 [Maytansine, maytansine, reference compound]",–,antitumor activity [2]: principally inactive in the tested models or only showed marginal tumor inhibition; IC50 [3]: 0.22 nM
COc1cc2cc(c1Cl)N(C)C(=O)C[C@H](OC(=O)Cc1ccc(/C(C)=N/NC(=O)c3ccc(NC(=O)CCNC(=O)[C@H](CS(=O)(=O)O)NC(=O)CCCCCN4C(=O)C=CC4=O)cc3[N+](=O)[O-])cc1)[C@]1(C)O[C@H]1[C@H](C)[C@@H]1C[C@@](O)(NC(=O)O1)[C@H](OC)/C=C/C=C(\C)C2 [Compound 33],6.5%*,–
COc1cc2cc(c1Cl)N(C)C(=O)C[C@H](OC(=O)CSc1ccc(/C(C)=N/NC(=O)c3ccc(NC(=O)CCCCCN4C(=O)C=CC4=O)cc3S(=O)(=O)O)cc1)[C@]1(C)O[C@H]1[C@H](C)[C@@H]1C[C@@](O)(NC(=O)O1)[C@H](OC)/C=C/C=C(\C)C2 [Compound 37],3.9%*,–
COc1cc2cc(c1Cl)N(C)C(=O)C[C@H](OC(=O)COc1cccc(/C(C)=N/NC(=O)c3ccc(NC(=O)CCNC(=O)[C@H](CS(=O)(=O)O)NC(=O)CCCCCN4C(=O)C=CC4=O)cc3[N+](=O)[O-])c1)[C@]1(C)O[C@H]1[C@H](C)[C@@H]1C[C@@](O)(NC(=O)O1)[C@H](OC)/C=C/C=C(\C)C2 [Compound 42],–,free maytansinoid after 24 h at pH 7.4 ([1]; measured at 100 μM): 4.8%**
COc1cc2cc(c1Cl)N(C)C(=O)C[C@H](OC(=O)CCc1ccc(/C(C)=N/NC(=O)c3ccc(NC(=O)CCCCCN4C(=O)C=CC4=O)cc3S(=O)(=O)O)cc1)[C@]1(C)O[C@H]1[C@H](C)[C@@H]1C[C@@](O)(NC(=O)O1)[C@H](OC)/C=C/C=C(\C)C2 [Compound 41],4.6%*,–
COc1cc2cc(c1Cl)N(C)C(=O)C[C@H](OC(=O)CN(C)c1ccc(/C(C)=N/NC(=O)c3ccc(NC(=O)CCCCCN4C(=O)C=CC4=O)cc3S(=O)(=O)O)cc1)[C@]1(C)O[C@H]1[C@H](C)[C@@H]1C[C@@](O)(NC(=O)O1)[C@H](OC)/C=C/C=C(\C)C2 [Compound 40],8.9%*,–
COc1cc2cc(c1Cl)N(C)C(=O)C[C@H](OC(=O)CSc1ccc(/C(C)=N/NC(=O)c3ccc(NC(=O)CCCCCN4C(=O)C=CC4=O)cc3S(=O)(=O)O)cc1C)[C@]1(C)O[C@H]1[C@H](C)[C@@H]1C[C@@](O)(NC(=O)O1)[C@H](OC)/C=C/C=C(\C)C2 [Compound 39],9.6%*,–
COc1cc2cc(c1Cl)N(C)C(=O)C[C@H](OC(=O)Cc1ccc(/C(C)=N/NC(=O)c3ccc(NC(=O)CCCCCN4C(=O)C=CC4=O)cc3S(=O)(=O)O)cc1)[C@]1(C)O[C@H]1[C@H](C)[C@@H]1C[C@@](O)(NC(=O)O1)[C@H](OC)/C=C/C=C(\C)C2 [Compound 32],9.5%*,–
